According to US9963496B2, “Stable glucagon analogues and use for treatment of hypoglycaemia” (Novo Nordisk A/S, priority 2014, dated 2018):
*1 amine or outer side, *2 acyl side, *3 side chain or, on linkers, in order; H or OH if unused. Where a SMILES comes first, the peptide text is derived from it. Side-chain parts run from the residue outwards. [ ]: non-standard residue; d: D form. The star is where a group is joined. γGlu = O=C(O)[C@H](CCC(=O)[*:2])N[*:1]; Desaminohistidyl = O=C(CCc1c[nH]cn1)*; Aib = CC(C)(N)C(=O)O

Columns and labels:
physchem = assay type: physicochemical; settings: pH 7.5
Text: Assay (III): ThT Fibrillation Assay for the Assessment of Physical Stability of Peptide Compositions The purpose of this assay is to assess the physical stability of the glucagon derivatives of the invention in aqueous solutions. Low physical stability of a peptide may lead to amyloid fibril formation, which is observed as well-ordered, thread-like macromolecular structures in the sample, which eventually may lead to gel formation. This has traditionally been measured by visual inspection of the sample. However, that kind of measurement is very cumbersome and depending on the observer. Therefore, the application of a small molecule indicator probe is much more advantageous. Thioflavin T (ThT) is such a probe and has a distinct fluorescence signature when binding to fibrils [Naiki et al. (1989) Anal. Biochem. 177, 244-249; LeVine (1999) Methods. Enzymol. 309, 274-284]. Here, as depicted in FIG. 1, F is the ThT fluorescence at the time t. The constant t0 is the time needed to reach 50% of maximum fluorescence. The two important parameters describing fibril formation are the lag-time calculated by t0−2τ and the apparent rate constant kapp 1/τ. Samples were prepared freshly before each assay. Each sample composition is described in the legends. The pH of the sample was adjusted to the desired value using appropriate amounts of concentrated NaOH and HCl. Thioflavin T was added to the samples from a stock solution in H2O to a final concentration of 1 μM. Sample aliquots of 200 μl (250 μM of the glucagon derivative/analogue in 10 mM HEPES buffer, pH 7.5) were placed in a 96 well microtiter plate (Packard OptiPlate™-96, white polystyrene). Usually, four or eight replica of each sample (corresponding to one test condition) was placed in one column of wells. The plate was sealed with Scotch Pad (Qiagen). Incubation at given temperature, shaking and measurement of the ThT fluorescence emission were done in a Fluoroskan Ascent FL fluorescence platereader (Thermo Labsystems). The plate was incubated 37° C. with orbital shaking adjusted to 960 rpm with an amplitude of 1 mm. Fluorescence measurement was done using excitation through a 444 nm filter and measurement of emission through a 485 nm filter. Each run was initiated by incubating the plate at the assay temperature for 10 min. The plate was measured every 20 minutes for a desired period of time. Between each measurement, the plate was shaken and heated as described. After completion of the ThT assay the four or eight replica of each sample was pooled and centrifuged at 20000 rpm for 30 minutes at 18° C. The supernatant was filtered through a 0.22 μm filter and an aliquot was transferred to a HPLC vial. The concentration of peptide in the initial sample and in the filtered supernatant was determined by reverse phase HPLC using an appropriate standard as reference. The percentage fraction the concentration of the filtered sample constituted of the initial sample concentration was reported as the recovery. The measurement points were saved in Microsoft Excel format for further processing and curve drawing and fitting was performed using GraphPad Prism. The background emission from ThT in the absence of fibrils was negligible. The data points were typically a mean of four or eight samples and shown with standard deviation error bars. Only data obtained in the same experiment (i.e. samples on the same plate) were presented in the same graph ensuring a relative measure of fibrillation between experiments. The data set may be fitted to Eq. (1).

human glucagon receptor = molecular target: T1, human glucagon receptor (Homo sapiens, UniProt P47871); experiment: Assay (I)(b): glucagon receptor activation, CRE luciferase reporter gene assay in BHK cells; assay type: cell-based; settings: BHK cells expressing human glucagon receptor and CRE luciferase, 3 h incubation; read-out: EC50 hGlucagonR
T1 construct: expressed in transfected cells; host or cells: BHK cells, clone BHK hGCGR A3*25; isolated membranes
T1 sequence (P47871 26-477): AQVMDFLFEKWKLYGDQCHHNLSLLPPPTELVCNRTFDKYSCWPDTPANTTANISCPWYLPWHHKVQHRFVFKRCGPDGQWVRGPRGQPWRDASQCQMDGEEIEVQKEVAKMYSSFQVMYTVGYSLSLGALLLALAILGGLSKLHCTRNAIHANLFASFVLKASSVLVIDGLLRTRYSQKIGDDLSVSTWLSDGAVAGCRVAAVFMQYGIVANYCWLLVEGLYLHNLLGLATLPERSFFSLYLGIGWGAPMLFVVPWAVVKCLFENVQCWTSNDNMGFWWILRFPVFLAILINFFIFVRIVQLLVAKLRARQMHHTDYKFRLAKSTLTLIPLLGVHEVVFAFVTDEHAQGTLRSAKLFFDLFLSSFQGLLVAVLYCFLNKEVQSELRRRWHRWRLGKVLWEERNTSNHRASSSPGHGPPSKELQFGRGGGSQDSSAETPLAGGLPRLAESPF
Experimental: The purpose of this assay is to test the activity, or potency, of the derivatives of the invention, in vitro. The in vitro potency is the measure of human GLP-1 receptor and/or glucagon receptor activation, respectively, in a whole cell assay.
In vitro potency was determined by measuring the response of human GLP-1 or glucagon receptor, respectively, in a reporter gene assay. The assay was performed in a stably transfected BHK cell line that expressed either the human GLP-1 receptor or the human glucagon receptor and contained the DNA for the cAMP response element (CRE) coupled to a promoter and the gene for firefly luciferase (CRE luciferase). […] When assay incubation was completed, the luciferase substrate (luciferin) was added and the enzyme converted luciferin to oxyluciferin and produced bioluminescence. The luminescence was measured as the readout for the assay.
(b) Glucagon Receptor Activation
The cells used in this assay (clone pLJ6′-4-25) were BHK cells with BHK570 as a parent cell line expressing the CRE luciferase gene (clone BHK/KZ10-20-48) and were established by further transfection with the human glucagon receptor (clone pLJ6′ in pHZ-1 vector).
The cells were cultured at 5% CO2 in DMEM medium with 10% FBS, 1× GlutaMAX, 1 mg/mL G418, 240 nM MTX (methotrexate) and 1% pen/strep (penicillin/streptomycin). They were aliquoted and stored in liquid nitrogen. Before each assay, an aliquot was taken up and washed three times in PBS before being suspended at the desired concentration in assay buffer. For 96-well plates the suspension was made to give a final concentration of 5×10 EE3 cells/well.
Assay Medium consisted of DMEM w/o phenol red, 10 mM Hepes, lx GlutaMAX, 2% Ovalbumin and 0.2% Pluronic F-68.
Cell stocks were thawed in a 37° C. water bath. Cells were washed three times in PBS. The cells were counted and adjusted to 5×10 EE3 cells/50 μl (1×10 EE5 cells/mL) in Assay Medium. A 50 μl aliquot of cells was transferred to each well in the assay plate.
Stocks of the test compounds and reference compounds were diluted to a concentration of […] in Assay Medium. Compounds were diluted 10-fold to give the following concentrations: […], 2×10 EE-7 M, 2×10 EE-8 M; 2×10 EE-9 M, 2×10 EE-10 M, 2×10 EE-11 M, 2×10 EE-12 M and 2×10 EE-13 M. For each compound a blank assay buffer control was also included.
A 50 μl aliquot of compound or blank was transferred from the dilution plate to the assay plate. Compounds were tested at the following final concentrations: 1×10 EE-6 M, 1×10 EE-7 M, 1×10 EE-8 M; 1×10 EE-9 M, 1×10 EE-10 M, 1×10 EE-11 M and 1×10 EE-12 M and 1×10 EE-13 M.
The assay plate was incubated for 3 h in a 5% CO2 incubator at 37° C. The assay plate was removed from the incubator and allowed to stand at room temperature for 15 min. A 100 μl aliquot of steadylite plus reagent was added to each well of the assay plate (reagent is light sensitive). Each assay plate was covered with aluminum foil to protect it from light and shaken for 30 min at room temperature. Each assay plate was read in a Packard TopCount NXT instrument.
The data from the TopCount instrument was transferred to GraphPad Prism software. The software performed a non-linear regression (log(agonist) vs response-Variable slope (four parameter)). EC50 values were calculated by the software and reported in pM.

| Structure (SMILES) | recovery at 250 μM (physchem) [%] | EC50 (human glucagon receptor) [pM] |
| --- | --- | --- |
| CC(=O)N[C@@H](CCC(=O)N[C@@H](CCC(=O)N[C@@H](CCC(=O)N[C@@H](CCC(=O)NCCCC[C@H](NC(=O)[C@H](CC(C)C)NC(=O)[C@H](CC(C)C)NC(=O)[C@H](Cc1c[nH]c2ccccc12)NC(=O)[C@H](CCC(N)=O)NC(=O)[C@@H](NC(=O)[C@H](Cc1ccccc1)NC(=O)[C@H](CCC(=O)O)NC(=O)[C@H](CCC(N)=O)NC(=O)[C@H](C)NC(=O)[C@H](CCCNC(=N)N)NC(=O)[C@H](CCCNC(=N)N)NC(=O)[C@H](CO)NC(=O)[C@H](CCC(=O)O)NC(=O)[C@H](CC(C)C)NC(=O)[C@H](Cc1ccc(O)cc1)NC(=O)[C@H](CCCCN)NC(=O)[C@H](CO)NC(=O)[C@H](Cc1ccc(O)cc1)NC(=O)[C@H](CC(=O)O)NC(=O)[C@H](CO)NC(=O)[C@@H](NC(=O)[C@H](Cc1ccccc1)NC(=O)[C@@H](NC(=O)CNC(=O)[C@H](Cc1c[nH]cn1)NC(=O)[C@H](CO)NC(=O)CCc1c[nH]cn1)[C@@H](C)O)[C@@H](C)O)C(C)C)C(=O)N[C@H](C(=O)O)[C@@H](C)O)C(=O)O)C(=O)O)C(=O)O)C(=O)O [Example 14, N^ϵ28-[(4S)-4-[[(4S)-4-[[(4S)-4-[[(4S)-4-acetamido-4-carboxybutanoyl]amino]-4-carboxybutanoyl]amino]-4-carboxybutanoyl]amino]-4-carboxybutanoyl]-[Imp1, His3, Glu15, Glu21, Leu27, Lys28]-Glucagon] (Desaminohistidyl-SHGTFTSDYSKYLESRRAQEFVQWLLK([γGlu-γGlu-γGlu-γGlu-Ac])T-OH) | 98 | 6 |
| CC(=O)N[C@@H](CCC(=O)N[C@@H](CCC(=O)N[C@@H](CCC(=O)N[C@@H](CCC(=O)NCCCC[C@H](NC(=O)[C@@H](NC(=O)[C@H](Cc1ccccc1)NC(=O)[C@H](CC(=O)O)NC(=O)[C@H](CCC(N)=O)NC(=O)[C@H](C)NC(=O)[C@H](CCCNC(=N)N)NC(=O)[C@H](CCCNC(=N)N)NC(=O)C(C)(C)NC(=O)[C@H](CC(=O)O)NC(=O)[C@H](CC(C)C)NC(=O)[C@H](Cc1ccc(O)cc1)NC(=O)[C@H](CCCCN)NC(=O)[C@H](CO)NC(=O)[C@H](Cc1ccc(O)cc1)NC(=O)[C@H](CC(=O)O)NC(=O)[C@H](CO)NC(=O)[C@@H](NC(=O)[C@H](Cc1ccccc1)NC(=O)[C@@H](NC(=O)CNC(=O)[C@H](Cc1c[nH]cn1)NC(=O)[C@H](CO)NC(=O)CCc1c[nH]cn1)[C@@H](C)O)[C@@H](C)O)C(C)C)C(=O)N[C@@H](Cc1c[nH]c2ccccc12)C(=O)N[C@@H](CC(C)C)C(=O)N[C@@H](CC(C)C)C(=O)N[C@@H](CO)C(=O)N[C@H](C(=O)O)[C@@H](C)O)C(=O)O)C(=O)O)C(=O)O)C(=O)O [Example 21, N^ϵ24-[(4S)-4-[[(4S)-4-[[(4S)-4-[[(4S)-4-acetamido-4-carboxybutanoyl]amino]-4-carboxybutanoyl]amino]-4-carboxybutanoyl]amino]-4-carboxybutanoyl]-[Imp1, His3, Aib16, Lys24, Leu27, Ser28]-Glucagon] (Desaminohistidyl-SHGTFTSDYSKYLD[Aib]RRAQDFVK([γGlu-γGlu-γGlu-γGlu-Ac])WLLST-OH) | 104 | 2 |
| CC(=O)N[C@@H](CCC(=O)N[C@@H](CCC(=O)N[C@@H](CCC(=O)N[C@@H](CCC(=O)NCCCC[C@H](NC(=O)[C@H](CO)NC(=O)[C@H](CC(C)C)NC(=O)[C@H](CC(C)C)NC(=O)[C@H](Cc1c[nH]c2ccccc12)NC(=O)[C@H](CCC(N)=O)NC(=O)[C@@H](NC(=O)[C@H](Cc1ccccc1)NC(=O)[C@H](CCC(=O)O)NC(=O)[C@H](CCC(N)=O)NC(=O)[C@H](C)NC(=O)[C@H](CCCNC(=N)N)NC(=O)[C@H](CCCNC(=N)N)NC(=O)[C@H](CO)NC(=O)[C@H](CCC(=O)O)NC(=O)[C@H](CC(C)C)NC(=O)[C@H](Cc1ccc(O)cc1)NC(=O)[C@H](CCCCN)NC(=O)[C@H](CO)NC(=O)[C@H](Cc1ccc(O)cc1)NC(=O)[C@H](CC(=O)O)NC(=O)[C@H](CO)NC(=O)[C@@H](NC(=O)[C@H](Cc1ccccc1)NC(=O)[C@@H](NC(=O)CNC(=O)[C@H](Cc1c[nH]cn1)NC(=O)[C@H](CO)NC(=O)CCc1c[nH]cn1)[C@@H](C)O)[C@@H](C)O)C(C)C)C(=O)O)C(=O)O)C(=O)O)C(=O)O)C(=O)O [Example 15, N^ϵ29-[(4S)-4-[[(4S)-4-[[(4S)-4-[[(4S)-4-acetamido-4-carboxybutanoyl]amino]-4-carboxybutanoyl]amino]-4-carboxybutanoyl]amino]-4-carboxybutanoyl]-[Imp1, His3, Glu15, Glu21, Leu27, Ser28, Lys29]-Glucagon] (Desaminohistidyl-SHGTFTSDYSKYLESRRAQEFVQWLLSK([γGlu-γGlu-γGlu-γGlu-Ac])-OH) | 88 | 4 |
